Results: publication PMC8258697 (The Journal of Biological Chemistry, 2021)

How the values were obtained:
[1] = tested on: PPARγ LBD; experiment: Two-dimensional titration of SR11237 and unlabeled mutant RXRα LBD: CBP-1 recruitment by sGFP-PPARγ LBD (HTRF); format: biochemical, human;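 for HTRF mean; N=2: mutant RXRα LBD carries mutations that block its own coactivator recruitment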
[2] = biological target: T1, RXRα homodimer (Homo sapiens, UniProt P19793); experiment: RXRα homodimer formation HTRF assay, sGFP-RXRα LBD titrated against biotinylated RXRα LBD (wildtype); format: binding; details: 10 μM ligand compared with no ligand
T1 construct: His10-tag with TEV site (N, cleaved yes); made in house; host or cells: E. coli T7 express (co-expressed with GroEL/ES)
T1 sequence (P19793 226-462) 1: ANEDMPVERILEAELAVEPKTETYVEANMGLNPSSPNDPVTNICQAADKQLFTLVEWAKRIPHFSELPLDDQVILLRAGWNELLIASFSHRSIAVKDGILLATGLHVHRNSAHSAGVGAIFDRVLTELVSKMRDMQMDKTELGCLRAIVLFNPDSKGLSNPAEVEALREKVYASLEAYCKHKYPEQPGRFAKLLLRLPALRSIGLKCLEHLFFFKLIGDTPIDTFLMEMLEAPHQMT
T1 sequence (P19793 226-462) 2: T1 sequence (P19793 226-462) 1

## CC1(C)CCC(C)(C)c2cc(C3(c4ccc(C(=O)O)cc4)OCCO3)ccc21 [SR11237]
[1]; SR11237 163.84 nM, RXRα mutant LBD 3.90625 nM
  HTRF mean; N=2: 7848
[1]; SR11237 163.84 nM, RXRα mutant LBD 7.8125 nM
  HTRF mean; N=2: 7981
[1]; SR11237 163.84 nM, RXRα mutant LBD 31.25 nM
  HTRF mean; N=2: 8037
[1]; SR11237 163.84 nM, RXRα mutant LBD 62.5 nM
  HTRF mean; N=2: 8496
[1]; SR11237 163.84 nM, RXRα mutant LBD 250 nM
  HTRF mean; N=2: 9360
[1]; SR11237 163.84 nM, RXRα mutant LBD 500 nM
  HTRF mean; N=2: 9174
[1]; SR11237 163.84 nM, RXRα mutant LBD 1000 nM
  HTRF mean; N=2: 9009
[1]; SR11237 1024 nM, RXRα mutant LBD 1.95312 nM
  HTRF mean; N=2: 7904
[1]; SR11237 1024 nM, RXRα mutant LBD 3.90625 nM
  HTRF mean; N=2: 7933
[1]; SR11237 1024 nM, RXRα mutant LBD 7.8125 nM
  HTRF mean; N=2: 8096
[1]; SR11237 1024 nM, RXRα mutant LBD 31.25 nM
  HTRF mean; N=2: 8413
[1]; SR11237 1024 nM, RXRα mutant LBD 62.5 nM
  HTRF mean; N=2: 8597
[1]; SR11237 1024 nM, RXRα mutant LBD 250 nM
  HTRF mean; N=2: 9475
[1]; SR11237 1024 nM, RXRα mutant LBD 500 nM
  HTRF mean; N=2: 9672
[1]; SR11237 1024 nM, RXRα mutant LBD 1000 nM
  HTRF mean; N=2: 9907
[1]; SR11237 16000 nM, RXRα mutant LBD 0.976562 nM
  HTRF mean; N=2: 8373
[1]; SR11237 16000 nM, RXRα mutant LBD 1.95312 nM
  HTRF mean; N=2: 8383
[1]; SR11237 16000 nM, RXRα mutant LBD 3.90625 nM
  HTRF mean; N=2: 8482
[1]; SR11237 16000 nM, RXRα mutant LBD 7.8125 nM
  HTRF mean; N=2: 8492
[1]; SR11237 16000 nM, RXRα mutant LBD 31.25 nM
  HTRF mean; N=2: 8658
[1]; SR11237 16000 nM, RXRα mutant LBD 62.5 nM
  HTRF mean; N=2: 9133
[1]; SR11237 16000 nM, RXRα mutant LBD 250 nM
  HTRF mean; N=2: 9981
[1]; SR11237 16000 nM, RXRα mutant LBD 500 nM
  HTRF mean; N=2: 10090
[1]; SR11237 16000 nM, RXRα mutant LBD 1000 nM
  HTRF mean; N=2: 10256
[1]; SR11237 100000 nM, RXRα mutant LBD 0.976562 nM
  HTRF mean; N=2: 8525
[1]; SR11237 100000 nM, RXRα mutant LBD 1.95312 nM
  HTRF mean; N=2: 8620
[1]; SR11237 100000 nM, RXRα mutant LBD 3.90625 nM
  HTRF mean; N=2: 8706
[1]; SR11237 100000 nM, RXRα mutant LBD 7.8125 nM
  HTRF mean; N=2: 8679
[1]; SR11237 100000 nM, RXRα mutant LBD 31.25 nM
  HTRF mean; N=2: 8875
[1]; SR11237 100000 nM, RXRα mutant LBD 62.5 nM
  HTRF mean; N=2: 9423
[1]; SR11237 100000 nM, RXRα mutant LBD 250 nM
  HTRF mean; N=2: 9880
[1]; SR11237 100000 nM, RXRα mutant LBD 500 nM
  HTRF mean; N=2: 10045
[1]; SR11237 100000 nM, RXRα mutant LBD 1000 nM
  HTRF mean; N=2: 9921
[1]; SR11237 […], RXRα mutant LBD 0.976562 nM
  HTRF mean; N=2: 8114
[1]; SR11237 […], RXRα mutant LBD 1.95312 nM
  HTRF mean; N=2: 8140
[1]; SR11237 […], RXRα mutant LBD 3.90625 nM
  HTRF mean; N=2: 8154
[1]; SR11237 […], RXRα mutant LBD 7.8125 nM
  HTRF mean; N=2: 8229
[1]; SR11237 […], RXRα mutant LBD 31.25 nM
  HTRF mean; N=2: 8421
[1]; SR11237 […], RXRα mutant LBD 62.5 nM
  HTRF mean; N=2: 8922
[1]; SR11237 […], RXRα mutant LBD 250 nM
  HTRF mean; N=2: 9616
[1]; SR11237 […], RXRα mutant LBD 500 nM
  HTRF mean; N=2: 9926
[1]; SR11237 […], RXRα mutant LBD 1000 nM
  HTRF mean; N=2: 9869
[1]; other factor (RXRα or SR11237) present at ≤1 nM
  CBP-1 recruitment relative to that seen with rosiglitazone: ≤ 5%
[2]
  effect on RXRα homodimer formation: significantly destabilized the homodimer
